From patent US20030144310A1 (priority 2001, published 2003)
pEC50: −log10 of the molar value. Read-outs that look alike come from different tables or passages of the source.

How the values were obtained:
[1] = system: rat bladder; assay: Distension-induced rhythmic contraction (DIRC) model, micturition reflex; format: in vivo; conditions: i.v.; for inhibition of bladder activity, persisted for: anesthetized rat, figure legend (FIG. 1, FIG. 2)
Procedure: The effects of compounds on the micturition reflex were assessed in the “distension-induced rhythmic contraction” (DIRC) model (also called “volume-induced rhythmic contraction” model) in rats, as described in previous publications (e.g. Maggi, et al., 1987; Morikawa, et al., 1992; Guarneri, et al., 1993). This model is widely considered to be predictive for the actions of drugs to treat human urge incontinence (also referred to as detrusor instability or unstable bladder). Examples of drugs that are active in this model which also are used therapeutically in humans include oxybutynin and baclofen (Morikawa et al, 1992); imipramine and nortriptyline (36); and nifedipine and terodiline (37).
Female Sprague Dawley rats weighing approximately 300 g were anesthetized with subcutaneous urethane ([…]). The trachea was cannulated with PE240 tubing to provide a clear airway throughout the experiment. A midline abdominal incision was made and the left and right ureters were isolated. The ureters were ligated distally (to prevent escape of fluids from the bladder) and cannulated proximally with PE10 tubing. The incision was closed using 4-0 silk sutures, leaving the PE10 lines routed to the exterior for the elimination of urine. The bladder was canulated via the transurethral route using PE50 tubing inserted 2.5 cm beyond the urethral opening. This cannula was secured to the tail using tape and connected to a pressure transducer. To prevent leakage from the bladder, the cannula was tied tightly to the exterior urethral opening using 4-0 silk.
To initiate the micturition reflex, the bladder was first emptied by applying pressure to the lower abdomen, and then filled with normal saline in 100 μL increments (maximum=2 ml) until spontaneous bladder contractions occurred (typically 20-40 mmHg) at a rate of one contraction every 2 to 3 minutes. Once a regular rhythm was established, vehicle (saline) or test compounds were administered i.v. to examine their effects on bladder activity. The effect of a compound which inhibited the micturition reflex was expressed as its “disappearance time”, defined as the time between successive bladder contractions in the presence of the test compound minus the time between contractions before compound administration.
Female Sprague Dawley rats weighing approximately 300 g were anesthetized with subcutaneous urethane (1.2 g/kg). The trachea was cannulated with PE240 tubing to provide a clear airway throughout the experiment. A midline abdominal incision was made and the left and right ureters were isolated. The ureters were ligated distally (to prevent escape of fluids from the bladder) and cannulated proximally with PE10 tubing. […]

[2] = target: T1, rNPFF-2 (Rattus norvegicus, UniProt Q9EQD2); assay: Functional activity (EC50 and intrinsic activity relative to NPFF); format: cell-based; conditions: for Functional Activity rNPFF-2 I.A. %: intrinsic activity as percentage of maximal response by NPFF
T1 construct: expressed in transfected cells
Source text: (§1) The data shown are representative of at least two independent experiments.

[3] = target: T2, rNPFF-1 (Rattus norvegicus, UniProt Q9EP86); assay: as above; format: cell-based; conditions: for Functional Activity rNPFF-1 I.A. %: intrinsic activity as percentage of maximal response by NPFF; for pEC50: tested 0.001 nM to 3600 nM
T2 construct: expressed in transfected cells
Source text: as §1

[4] = target: T2, rNPFF-1; assay: Radioligand binding assay, competitive displacement of [125I]1DMeNPFF at cloned NPFF receptors; conditions: cloned rat receptor
[5] = target: T1, rNPFF-2; assay: as above; conditions: cloned rat receptor
[6] = tested 0.001 nM to 3600 nM, read-out: Functional Activity rNPFF-2 EC50

T1 sequence (Q9EQD2 whole entry): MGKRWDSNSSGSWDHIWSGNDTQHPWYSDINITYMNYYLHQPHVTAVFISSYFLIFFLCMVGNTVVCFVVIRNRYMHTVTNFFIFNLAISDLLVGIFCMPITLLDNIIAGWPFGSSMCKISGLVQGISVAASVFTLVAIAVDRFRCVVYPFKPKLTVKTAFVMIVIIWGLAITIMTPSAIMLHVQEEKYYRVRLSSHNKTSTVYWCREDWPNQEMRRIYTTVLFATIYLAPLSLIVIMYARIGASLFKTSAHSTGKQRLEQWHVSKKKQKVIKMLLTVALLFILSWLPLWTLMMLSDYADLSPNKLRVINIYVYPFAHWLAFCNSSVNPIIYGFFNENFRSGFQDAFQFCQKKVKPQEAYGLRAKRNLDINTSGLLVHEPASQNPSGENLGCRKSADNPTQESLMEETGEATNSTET
T2 sequence (Q9EP86 whole entry): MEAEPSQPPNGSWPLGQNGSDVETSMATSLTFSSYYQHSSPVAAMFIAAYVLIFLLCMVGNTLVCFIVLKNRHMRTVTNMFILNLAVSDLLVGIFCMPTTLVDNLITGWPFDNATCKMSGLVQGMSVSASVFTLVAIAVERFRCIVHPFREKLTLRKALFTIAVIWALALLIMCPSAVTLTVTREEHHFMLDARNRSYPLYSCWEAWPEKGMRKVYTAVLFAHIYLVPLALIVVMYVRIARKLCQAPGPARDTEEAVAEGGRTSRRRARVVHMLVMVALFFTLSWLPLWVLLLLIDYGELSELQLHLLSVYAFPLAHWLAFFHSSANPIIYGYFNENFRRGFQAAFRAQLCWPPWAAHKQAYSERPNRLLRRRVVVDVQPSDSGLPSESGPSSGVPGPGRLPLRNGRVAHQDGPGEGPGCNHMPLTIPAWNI

| Compound | inhibition of distention induced contractions of the rat bladder ([1]; 3 mg/kg) | inhibition of bladder activity, persisted for [1] [min] | Functional Activity rNPFF-2 I.A. % [2] [%] | pEC50 [2, 6] | Functional Activity rNPFF-1 I.A. % [3] [%] | pEC50 [3] | Ki [4] [nM] | Ki [5] [nM] | pEC50 [2] | inhibition of distention induced contractions of the rat bladder ([1]; 1 mg/kg) |
| --- | --- | --- | --- | --- | --- | --- | --- | --- | --- | --- |
| Cc1ccc2c(C)cc(NC(=N)N)nc2c1 [N-(4,7-dimethyl-2-quinolinyl)guanidine] | complete inhibition | 12 |  |  |  |  |  |  |  |  |
| N=C(N)NCCC[C@H](NS(=O)(=O)Cc1ccccc1)C(=O)N[C@@H](Cc1ccccc1)C(N)=O [Compound 1011, N1-[(1S)-2-Amino-1-benzyl-2-oxoethyl]-(25)-5-[amino(imino)methyl]amino-2-[(benzylsulfonyl)amino]pentanamide] |  |  | 62 | 5.87 | 74 | 6.12 | 5960 | > 10000 |  |  |
| Cc1ccc(S(=O)(=O)N[C@@H](CCCNC(=N)N)C(=O)N[C@@H](Cc2ccccc2)C(N)=O)cc1 [Compound 1007] |  |  | 55 | 5.64 | 79 | 6.54 | 756 | 3080 |  |  |
| N=C(N)NCCC[C@H](NS(=O)(=O)c1ccc(F)cc1)C(=O)N[C@H](Cc1ccccc1)C(N)=O [Compound 1033] |  |  | 57 | 5.71 | 42 | 5.80 | 458 | > 10000 |  |  |
| N=C(N)NCCC[C@H](NS(=O)(=O)c1ccccc1[N+](=O)[O-])C(=O)N[C@@H](Cc1ccccc1)C(N)=O [Compound 1026] |  |  | 59 | < 5.50 | 79 | 6.39 | 535 | 3500 |  |  |
| N=C(N)NCCC[C@H](NS(=O)(=O)c1ccc(F)cc1)C(=O)N[C@@H](Cc1ccccc1)C(N)=O [Compound 1005] |  |  | 46 | 5.46 | 71 | 6.98 | 150 | 1370 |  |  |
| N=C(N)NCCC[C@H](NS(=O)(=O)c1ccc(C(F)(F)F)cc1[N+](=O)[O-])C(=O)N[C@@H](Cc1ccccc1)C(N)=O [Compound 1018] |  |  | 10 | 5.25 | 21 | < 5.50 | 1950 | 4430 |  |  |
| N=C(N)NCCC[C@H](NS(=O)(=O)c1ccc(F)c(Cl)c1)C(=O)N[C@@H](Cc1ccccc1)C(N)=O [Compound 1017] |  |  | 45 | < 5.50 | 84 | 6.42 | 1140 | 3560 |  |  |
| N=C(N)NCCC[C@H](NS(=O)(=O)c1cc(Cl)ccc1Cl)C(=O)N[C@@H](Cc1ccccc1)C(N)=O [Compound 1021] |  |  | 59 | 5.63 | 78 | 5.99 | 335 | 2030 |  |  |
| CN(C)c1cccc2c(S(=O)(=O)N[C@@H](CCCN=C(N)N)C(=O)N[C@@H](Cc3ccccc3)C(N)=O)cccc12 [dansyl-RFamide, reference compound] |  |  | 96 | 5.60 | 106 | 6.28 | 88 | 2310 |  |  |
| N=C(N)NCCC[C@H](NS(=O)(=O)c1cccs1)C(=O)N[C@@H](Cc1ccccc1)C(N)=O [Compound 1013] |  |  | 42 | < 5.50 | 80 | 6.87 | 211 | 6390 |  |  |
| N=C(N)NCCC[C@H](NS(=O)(=O)c1cccc([N+](=O)[O-])c1)C(=O)N[C@@H](Cc1ccccc1)C(N)=O [Compound 1002] |  |  | 89 | 6.07 | 88 | 6.86 | 136 | 1250 |  |  |
| N=C(N)NCCC[C@H](NS(=O)(=O)c1ccccc1)C(=O)N[C@@H](Cc1ccccc1)C(N)=O [Compound 1008] |  |  | 20 | 5.25 | 70 | 5.33 | 321 | 4410 |  |  |
| N=C(N)NCCC[C@H](NS(=O)(=O)c1ccc2ccccc2c1)C(=O)N[C@@H](Cc1ccccc1)C(N)=O [Compound 1014, N1-[(1S)-2-Amino-1-benzyl-2-oxoethyl]-(2S)-(5-guanidino)-2-[(2-naphthylsulfonyl)amino]pentanamide] |  |  | 73 | 6.04 | 74 | 7.28 | 314 | 2780 |  |  |
| N=C(N)NCCC[C@H](NS(=O)(=O)c1ccc([N+](=O)[O-])cc1[N+](=O)[O-])C(=O)N[C@@H](Cc1ccccc1)C(N)=O [Compound 2002] |  |  | 05 |  | 34 |  | 1390 | 5490 | < 5.00 |  |
| N#Cc1ccccc1S(=O)(=O)N[C@@H](CCCNC(=N)N)C(=O)N[C@@H](Cc1ccccc1)C(N)=O [Compound 1027] |  |  |  | < 5.50 |  | 6.74 | 515 | 6170 |  |  |
| N=C(N)NCCC[C@@H](NS(=O)(=O)c1ccc(F)cc1)C(=O)N[C@@H](Cc1ccccc1)C(N)=O [Compound 1028] |  |  | 62 | 5.80 |  | 6.39 | 1280 | 8060 |  |  |
| N=C(N)NCCC[C@H](NS(=O)(=O)c1ccc(Cl)cc1Cl)C(=O)N[C@@H](Cc1ccccc1)C(N)=O [Compound 1010] |  |  | 28 | 5.53 | 85 | 6.23 | 871 | 1860 |  |  |
| Cc1cc(NC(=N)N)nc2ccc(Cl)cc12 [N-(6-chloro-4-methyl-2-quinolinyl)guanidine] |  | 35 |  |  |  |  |  |  |  | complete inhibition |
